Results on four molecules are retold here after US20200223889A1, “Bicyclic Compounds Capable of Binding to Melanocortin 4 Receptor” (Novo Nordisk A/S, priority 2017, published 2020).

pEC50, pKi: −log10 of the molar value. Where two headings read alike, the source gives them in different places. Positions of bridges follow the written chain, without caps; N, C: chain ends. Non-standard residues stand in square brackets, D forms with d. Residues, ends and D or L forms follow the SMILES beside them. Thz = O=C(O)[C@@H]1CSCN1

Test [1] is described as follows: In vivo acute food intake model (BioDAQ) in C57BL/6J male mice. The following applies: single subcutaneous dose 1 mg/kg, cumulative food intake. The procedure: The MC4R system is central to appetite regulation and agonists are known inhibit food intake. In order to screen compounds in a relevant in vivo model, efficacy was assessed by determining the effect of the compound on reducing food intake acutely in mice.
All animal protocols were approved by an Institutional Animal Care and Use Committee and Ethical Review Committee of Novo Nordisk. Animals were housed according to Novo Nordisk rodent housing standards, and were given ad libitum access to food and water under controlled lighting (12 h:12 h light/dark cycle; lights off 11:00-23:00), temperature (23±2° C.) and relative humidity (50±20%) conditions. For each acute food intake study C57BL/6J male mice (25-30 grams body weight) were acclimated for two weeks to the appropriate light cycle and to single-housing (one mouse per cage) in cages linked to a BioDAQ automated food intake system (Research Diets Inc., New Brunswick, N.J. USA). The animals were also acclimated to new food (Research Diets 12450B, 10% kcal fat) during this time.
The BioDAQ is a computer automated scientific instrument for Biological Data Acquisition of food intake in rodents and measures food intake from each cage every 15 minutes. A total of 32 animals can be accommodated in the system per study, therefore, animals were randomized into 4 groups of n=8 for each study. […] Animals were fasted ˜4 hr prior to dosing. Vehicle (10 mM phosphate; 140 mM sodium chloride) or compound was dosed at a volume of 10 ml per kg subcutaneously approximately 20 minutes prior to the start of the dark cycle (compound chem no. and dosages are indicated in table 2 below). After dosing, food intake was recorded for approximately 24 hours.
The inhibitory effect of compounds on food intake was generally well-correlated with in vitro binding affinity on the human MC4 receptor and with plasma stability of the compound. Most studies were conducted as dose response studies with vehicle and the compound at 3 doses (0.3, 1 and 3 mg/kg). Some studies were done for the purpose of dose-range finding, while others were done to comparatively assess the effect of 3 compounds at the same dose. Maximal effects on food intake occurred within the first 1-5 hours post-dose. The comparative effect of compounds across studies on food intake was assessed by normalizing measurements as % effect on cumulative food intake after a single subcutaneous dose, relative to vehicle. Results are reported in Table 2 as % effect on food intake at 3 hours post dose.

In test [2] the target is T1, human MC4R (Homo sapiens, UniProt P32245).
T1 construct: expressed in transfected cells
T1 sequence (P32245 whole entry): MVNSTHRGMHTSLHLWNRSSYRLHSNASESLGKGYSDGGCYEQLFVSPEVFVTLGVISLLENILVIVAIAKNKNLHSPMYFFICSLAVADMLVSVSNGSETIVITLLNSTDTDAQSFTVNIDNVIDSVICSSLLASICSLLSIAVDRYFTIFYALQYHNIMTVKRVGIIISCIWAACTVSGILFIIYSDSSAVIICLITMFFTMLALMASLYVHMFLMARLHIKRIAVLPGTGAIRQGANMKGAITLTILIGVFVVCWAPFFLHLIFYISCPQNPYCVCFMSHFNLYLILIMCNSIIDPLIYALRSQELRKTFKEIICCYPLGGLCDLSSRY
In words: Functional cAMP assay (CisBio HTRF) in BHK cells expressing human MC4R. The test is classed as cell-based. As to conditions: for MC1R/MC4R cAMP EC50 ratio: MC1R cAMP EC50 divided by MC4R cAMP EC50. The method in brief: (§1)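 Compound working solutions, 10-fold dilutions from 2 μM at twice final strength, in buffer containing 1 mM IBMX, were incubated 30 min at 25 °C with BHK cells stably carrying human MC4R or MC1R. Accumulated cAMP was then detected by competitive HTRF after 1 h at 25 °C and fitted by non-linear regression.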
Background: Cyclic AMP is a second messenger, typically raised through Gs and lowered through Gi signalling.

Test [3] has as its target T1, human MC4R. In words: 125NDP-α-MSH competitive binding to membranes of BHK cells expressing human MC4 receptor (filtration assay). The method, boiled down: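 Displacement of ^125NDP-α-MSH (apx. […] final) was measured by filtration after 2 h at 25 °C, using diluted membranes of stably transfected BHK cells in pH 7.0 HEPES buffer. Compounds spanned 1 μM to 0.001 nM; binding curves were analysed by non-linear regression.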

For the next test, the target named is T2, human MC1R (Homo sapiens, UniProt Q01726).
T2 construct: expressed in transfected cells
T2 sequence (Q01726 whole entry): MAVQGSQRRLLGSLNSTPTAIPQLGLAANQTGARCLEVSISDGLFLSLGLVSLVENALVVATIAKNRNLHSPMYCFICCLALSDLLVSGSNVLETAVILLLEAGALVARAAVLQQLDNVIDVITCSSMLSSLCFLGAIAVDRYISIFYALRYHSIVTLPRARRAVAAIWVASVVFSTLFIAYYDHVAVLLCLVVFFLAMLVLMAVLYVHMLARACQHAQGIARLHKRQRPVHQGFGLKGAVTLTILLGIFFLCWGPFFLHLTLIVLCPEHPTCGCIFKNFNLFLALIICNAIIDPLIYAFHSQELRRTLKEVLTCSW
Nature of the test: Functional cAMP assay (CisBio HTRF) in BHK cells expressing human MC1R. The test is classed as cell-based. The method, boiled down:
as §1

Usually pEC50 stands for the negative decadic logarithm of the EC50, by convention in mol/L. As usually defined, the pKi is the Ki on a negative log10 scale, so that one unit is a factor of ten. For `C[C@@H]1NC(=O)[C@@H]2CSSC[C@H](NC(=O)[C@H](Cc3c[nH]c4ccccc34)NC(=O)[C@H](CCCCN)NC(=O)[C@H](CCCCN)NC(=O)[C@H](CCCCN)NC1=O)C(=O)N1CSC[C@H]1C(=O)N[C@@H](Cc1c[nH]cn1)C(=O)N[C@H](Cc1ccccc1)C(=O)N[C@@H](Cc1c[nH]cn1)C(=O)N[C@@H](Cc1c[nH]c3ccccc13)C(=O)N2` [Chem. 81, c[c[Cys-THAZ-His-D-Phe-His-Trp- Cys]-Ala-Lys-Lys-Lys-Trp]] (cyclo(AKKKWC[Thz]H[dF]HWC); disulfide 6-12), the “% Effect on food intake at 3 hours post dose, relative to vehicle” value (shortened to “% Effect on food intake … relative to vehicle”) in test [1] is listed as −72 ± 7%. In addition, at human MC4R [2], the pEC50 was 10.15 and the “MC1R/MC4R cAMP EC50 ratio” value is listed as 957. The molecule further gave a pKi on human MC4R [3] of 10.52.

As to `C[C@@H]1NC(=O)[C@@H]2CSSC[C@H](NC(=O)[C@H](CCCNC(=N)N)NC(=O)[C@H](CCCCN)NC(=O)[C@H](CCCCN)NC(=O)[C@H](Cc3c[nH]cn3)NC1=O)C(=O)N1CCC[C@H]1C(=O)N[C@@H](Cc1c[nH]cn1)C(=O)N[C@H](Cc1ccccc1)C(=O)N[C@@H](Cc1c[nH]cn1)C(=O)N[C@@H](Cc1c[nH]c3ccccc13)C(=O)N2` [Chem. 96, c[c[Cys-Pro-His-D-Phe-His-Trp-Cys]- Ala-His-Lys-Lys-Arg]] (cyclo(AHKKRCPH[dF]HWC); disulfide 6-12), the “% Effect on food intake … relative to vehicle” value in test [1] is on record as −17 ± 14%. For the same molecule, the pEC50 at human MC4R [2] (BHK cells expressing human MC4R, '>' = highest dose used with no response, read-out: MC4R cAMP EC50) was 10.40. Besides, the “MC1R/MC4R cAMP EC50 ratio” value on human MC4R [2] was determined as 1442. In addition, at human MC4R [3] (human MC4R, BHK cell membranes, 125NDP-α-MSH radioligand, read-out: MC4R binding Ki), the pKi is 10.40.

Turning to `C[C@@H]1NC(=O)[C@H](CCCCN)NC(=O)[C@H](CCCCN)NC(=O)[C@H](C)NC(=O)[C@@H]2CSSC[C@H](NC(=O)[C@H](Cc3c[nH]c4ccccc34)NC1=O)C(=O)N1CSC[C@H]1C(=O)N[C@@H](Cc1c[nH]cn1)C(=O)N[C@H](Cc1ccccc1)C(=O)N[C@@H](Cc1c[nH]cn1)C(=O)N[C@@H](Cc1c[nH]c3ccccc13)C(=O)N2` [Chem. 110, c[c[Cys-THAZ-His-D-Phe-His-Trp- Cys]-Ala-Lys-Lys-Ala-Trp]] (cyclo(AKKAWC[Thz]H[dF]HWC); disulfide 6-12), in test [1], the “% Effect on food intake … relative to vehicle” value is −26 ± 15%. In addition, on human MC4R [2], the pEC50 is 10.30 and the “MC1R/MC4R cAMP EC50 ratio” value came to 1266. On human MC4R [3], this molecule had a pKi of 10.05.

Regarding `C[C@@H]1NC(=O)[C@@H]2CSSC[C@H](NC(=O)[C@H](Cc3c[nH]c4ccccc34)NC(=O)[C@H](CCCNC(=N)N)NC(=O)[C@@H](Cc3ccccc3)NC(=O)[C@H](Cc3c[nH]cn3)NC1=O)C(=O)N[C@@H](C)C(=O)N[C@@H](Cc1c[nH]cn1)C(=O)N[C@H](Cc1ccccc1)C(=O)N[C@@H](CCCNC(=N)N)C(=O)N[C@@H](Cc1c[nH]c3ccccc13)C(=O)N2` [Chem. 111, c[c[Cys-Ala-His-D-Phe-Arg-Trp-Cys]- Ala-His-D-Phe-Arg-Trp]], the “% Effect on food intake … relative to vehicle” value in test [1] is −63 ± 4%. Further, the negative logarithm of the EC50 (pEC50) on human MC4R [2] was 11.00; on human MC1R, 9.51. Also, the “MC1R/MC4R cAMP EC50 ratio” value on human MC4R [2] came out at 31. The molecule further gave a pKi on human MC4R [3] of 10.40.
